Source: US7928139B2 (Amgen Inc., priority 2006, dated 2011)
pIC50: −log10 of the molar value.

biological target: HIF PHD2 (Homo sapiens, UniProt Q9GZT9); assay: PHD2 inhibition assay (TR-FRET, VCB-Eu detection of hydroxylated P564-HIF1α peptide); format: biochemical; conditions: 2 nM PHD2, 100 nM P564-HIF1α peptide, 0.25 μM 2-oxoglutarate, 100 μM FeCl2, 2 mM ascorbic acid
Method in brief: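 Human PHD2 (2 nM final) preincubated 1 h at room temperature with compound and 100 μM FeCl2 in pH 6 MES buffer, 5% DMSO final. Reaction with 100 nM biotinylated P564-HIF1α peptide, 2 mM ascorbate and 0.25 μM 2-oxoglutarate for 1 h, stopped with succinate. Hydroxylation read by TR-FRET (VCB-Eu/streptavidin-APC, 655/615 nm); IC50 from 4-parameter fit of percent of control.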

Sequence of HIF PHD2 (Q9GZT9 whole entry): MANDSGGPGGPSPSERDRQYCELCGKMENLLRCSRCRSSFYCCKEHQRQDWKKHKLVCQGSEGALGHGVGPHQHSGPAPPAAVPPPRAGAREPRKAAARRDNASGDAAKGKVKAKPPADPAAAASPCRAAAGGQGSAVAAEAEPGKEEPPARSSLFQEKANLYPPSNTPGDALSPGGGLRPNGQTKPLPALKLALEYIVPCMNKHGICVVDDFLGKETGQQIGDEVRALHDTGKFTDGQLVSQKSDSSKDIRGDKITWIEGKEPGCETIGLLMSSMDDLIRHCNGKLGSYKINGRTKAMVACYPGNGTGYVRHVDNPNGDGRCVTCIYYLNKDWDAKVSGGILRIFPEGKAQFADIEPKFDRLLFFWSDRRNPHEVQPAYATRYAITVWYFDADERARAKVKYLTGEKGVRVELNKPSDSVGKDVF

Row | Compound | pIC50
1 | CC1(C#N)C(=O)C(C(=O)NCC(=O)O)=C(O)c2cc(F)ccc21 (centres unmarked) [Example 131, 2-(1-cyano-6-fluoro-4-hydroxy-1-methyl-2-oxo-1,2-dihydronaphthalene-3-carboxamido) acetic acid] | > 7.00
2 | CC1(C#N)C(=O)C(C(=O)NCC(=O)O)=C(O)c2ccc(Br)cc21 (centres unmarked) [Example 132, 2-(7-bromo-1-cyano-4-hydroxy-1-methyl-2-oxo-1,2-dihydronaphthalene-3-carboxamido) acetic acid] | > 7.00
3 | CC1(C#N)C(=O)C(C(=O)NCC(=O)O)=C(O)c2cc(F)c(F)cc21 (centres unmarked) [Example 133, 2-(1-cyano-6,7-difluoro-4-hydroxy-1-methyl-2-oxo-1,2-dihydronaphthalene-3-carboxamido) acetic acid] | > 7.00
4 | (R)-2-(7-bromo-1- cyano-4-hydroxy-1- methyl-2-oxo-1,2- dihydronaphthalene- 3-carboxamido) acetic acid or (S)-2-(7-bromo-1- cyano-4-hydroxy-1- methyl-2-oxo-1,2- dihydronaphthalene- 3-carboxamido) acetic acid [Example 134] | > 7.00
5 | (R)-2-(7-chloro-1- cyano-4-hydroxy-1- methyl-2-oxo-1,2- dihydronaphthalene- 3-carboxamido) acetic acid or (S)-2-(7-chloro-1- cyano-4-hydroxy-1- methyl-2-oxo-1,2- dihydronaphthalene- 3-carboxamido) acetic acid [Example 136] | > 7.00

Now from value to compound:

Row | pIC50 | Compound
6 | > 7.00 | O=C(O)CCC(=O)C1=C(O)c2ccc(Cl)cc2C2(CCOCC2)C1=O [Example 128, 4-(7-chloro-2-hydroxy-4-oxo-2′,3′,5′,6′-tetrahydro-4H-spiro[naphthalene-1,4′-pyran]-3-yl)-4-oxobutanoic acid]
7 | > 7.00 | CC1(C#N)C(=O)C(C(=O)NCC(=O)O)=C(O)c2ccc(Cl)cc21 (centres unmarked) [Example 129, 2-(7-chloro-1-cyano-4-hydroxy-1-methyl-2-oxo-1,2-dihydronaphthalene-3-carboxamido) acetic acid]
8 | > 7.00 | CC1(C#N)C(=O)C(C(=O)NCC(=O)O)=C(O)c2ccc(F)cc21 (centres unmarked) [Example 130, 2-(1-cyano-7-fluoro-4-hydroxy-1-methyl-2-oxo-1,2-dihydronaphthalene-3-carboxamido) acetic acid]
